Patent publication US10369146B2, “Phenyl linked quinolinyl modulators of RORγt” (Janssen Pharmaceutica NV, priority 2013, dated 2019)
Counter-ions that a name gives are not always drawn.

How the values were obtained:
[1] = target: T1, human RORγt ligand binding domain (RORγt LBD) (Homo sapiens, UniProt P51449); assay: RORγt ThermoFluor® assay (thermal shift binding); settings: RORγt LBD, 1,8-ANS dye, pH 7.0; Kd estimated from thermal shift
T1 construct: His-tag (N); TurboTEV protease cleavage site (ENLYFQG) (N); made in house; host or cells: E. coli (pHIS1, modified pET vector)
T1 sequence (P51449 with tags, fused parts or gaps): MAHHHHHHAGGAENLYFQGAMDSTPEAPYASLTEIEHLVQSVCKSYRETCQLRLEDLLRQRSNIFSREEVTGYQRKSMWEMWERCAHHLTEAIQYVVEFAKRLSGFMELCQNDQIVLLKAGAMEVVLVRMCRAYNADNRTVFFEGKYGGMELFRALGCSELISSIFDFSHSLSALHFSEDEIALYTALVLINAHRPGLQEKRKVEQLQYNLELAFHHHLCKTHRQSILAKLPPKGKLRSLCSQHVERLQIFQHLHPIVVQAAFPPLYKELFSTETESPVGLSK
Description: This approach is applicable to a wide variety of systems, and rigorous in theoretical interpretation through quantitation of equilibrium binding constants (KD).
The shift in the melting point described as a ΔTm is proportional to the concentration and affinity of the ligand.
Protein and compound solutions are dispensed into black 384-well polypropylene PCR microplates (Abgene) and overlayed with silicone oil (1 μL, Fluka, type DC 200) to prevent evaporation.
Bar-coded assay plates are robotically loaded onto a thermostatically controlled PCR-type thermal block and then heated at a typical ramp-rate of 1° C./min for all experiments. Fluorescence was measured by continuous illumination with UV light (Hamamatsu LC6) supplied via fiber optic and filtered through a band-pass filter (380-400 nm; >6 OD cutoff). Fluorescence emission of the entire 384-well plate was detected by measuring light intensity using a CCD camera (Sensys, Roper Scientific) filtered to detect 500±25 nm, resulting in simultaneous and independent readings of all 384 wells. Images were collected at each temperature, and the sum of the pixel intensity in a given area of the assay plate was recorded versus temperature. Reference wells contained RORγt without compounds, and the assay conditions were as follows: • 0.065 mg/mL RORγt • 60 μM 1,8-ANS • 100 mM Hepes, pH 7.0 • 10 mM NaCl • 2.5 mM GSH • 0.002% Tween-20
Project compounds were arranged in a pre-dosed mother plate (Greiner Bio-one) wherein compounds are serially diluted in 100% DMSO by 1:2 from a high concentration of 10 mM over 12 columns within a series (column 12 is a reference well containing DMSO, no compound). The compounds were robotically dispensed directly into assay plates (1×=46 nL) using a Hummingbird capillary liquid handling instrument (Digilab). Following compound dispense, protein and dye in buffer was added to achieve the final assay volume of 3 μL, followed by 1 μL of silicone oil.

human RORγt LBD = target: T2, human RORγt LBD (Homo sapiens, UniProt P51449); assay: RORγt reporter assay (GAL4-RORγt LBD luciferase, HEK293T cells); assay type: cell-based; settings: for IC50 / RORγt reporter Assay, % inhibition @ 6 μM: HEK293T cells; for IC50: 24 hours compound treatment, firefly/renilla luciferase ratio; for RORγt reporter Assay, % inhibition @ 6 μM: 6 μM compound; for inhibition at 6 µM: HEK-293T, read-out: RORγt reporter Assay, % inhibition @ 6 μM, 6 μM compound, HEK293T cells
T2 construct: expressed in transfected cells; host or cells: HEK293T
T2 sequence (P51449 258-518): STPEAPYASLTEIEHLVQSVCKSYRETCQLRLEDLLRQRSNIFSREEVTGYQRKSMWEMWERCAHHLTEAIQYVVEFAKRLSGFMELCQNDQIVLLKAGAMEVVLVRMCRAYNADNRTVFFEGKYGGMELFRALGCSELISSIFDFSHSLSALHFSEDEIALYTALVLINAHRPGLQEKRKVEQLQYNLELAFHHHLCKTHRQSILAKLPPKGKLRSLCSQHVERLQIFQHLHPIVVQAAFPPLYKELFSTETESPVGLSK
From the text: A reporter assay was used to test functional activity of RORγt modulatory compounds on transcriptional activation driven by the RORγt LBD. Cells used in the assay were co-transfected with two constructs. The first construct, pBIND-RORγt LBD, contained the wild type human RORγt LBD fused to the DNA binding domain of the GAL4 protein. The second construct, pGL4.31 (Promega Cat no. C935A), contained multiple GAL4 responsive DNA elements upstream of firefly luciferase. […] The mutant construct was called pBIND-RORγt-AF2.
The pBIND vector contains the GAL4 DNA Binding Domain (GAL4 DBD) and the renilla luciferase gene under control of the SV40 promoter. Renilla luciferase expression serves as a control for transfection efficiency and cell viability.
The reporter assay was performed by transiently transfecting HEK293T cells with 5 μg of pBIND-RORγt LBD or pBIND-RORγt LBD-AF2 and 5 μg pGL4.31 (Promega Cat no. C935A) using Fugene 6 (Invitrogen Cat no. E2691) at a 1:6 ratio of DNA:Fugene 6 in a T-75 flask in which cells were at least 80% confluent. Twenty four hours after bulk transfection, cells were plated into 96-well plates at 50,000 cells/well in phenol-red free DMEM containing 5% Lipid Reduced FCS and Pen/Strep. Six hours after plating, cells were treated with compounds for 24 hours. Media was removed and cells were lysed with 50 μL 1×Glo Lysis Buffer (Promega). Dual Glo Luciferase Reagent (50 μL/well) was then added and firefly luciferase luminescence was read on an Envision after a ten minute incubation. Finally, Stop and Glo reagent (50 IAL/well) was added and renilla luciferase luminescence was read on an Envision instrument after a ten minute incubation. To calculate the effect of compounds on RORγt activity, the ratio of firefly to renilla luciferase was determined and plotted against compound concentration. Agonist compounds increase RORγt-driven luciferase expression, and antagonist or inverse agonist compounds decrease luciferase expression.

[2] = system: IL-17 production by CD4 T cells; assay: Human Th17 assay (IL-17 production by CD4 T cells under Th17 differentiation); assay type: cell-based; settings: 3 days, IL-17 in supernatant
Description: The human Th17 assay tests the effect of RORγt modulatory compounds on IL-17 production by CD4 T cells under conditions which favor Th17 differentiation. Total CD4^+ T cells were isolated from the peripheral blood mononuclear cells (PBMC) of healthy donors using a CD4^+ T cell isolation kit II, following the manufacturer's instructions (Miltenyi Biotec). […] 50 μL of compound at titrated concentrations in DMSO were added into each well at final DMSO concentration at 0.2%. Cells were incubated for 1 hour, then 50 μL of Th17 cell differentiation medium was added to each well. The final concentrations of antibodies and cytokines (R&D Systems) in differentiation medium were: 3×10^6/mL anti-CD3/CD28 beads (prepared using human T cell activation/expansion kit, Miltenyi Biotec), 10 μg/mL anti-IL4, 10 μg/mL anti-IFNγ, 10 ng/mL IL1β, 10 ng/mL IL23, 50 ng/mL IL6, 3 ng/mL TGFβ and 20 U/mL IL2. Cells were cultured at 37° C. and 5% CO2 for 3 days. Supernatants were collected and the accumulated IL-17 in culture was measured by using MULTI-SPOT® Cytokine Plate following manufacture's instruction (Meso Scale Discovery). The plate was read using Sector Imager 6000, and IL-17 concentration was extrapolated from the standard curve. The IC50s were determined by GraphPad.

| SMILES | Kd [1] [nM] | IC50 (human RORγt LBD) [nM] | RORγt reporter Assay, % inhibition @ 6 μM (human RORγt LBD) [%] | also measured |
| --- | --- | --- | --- | --- |
| COc1c(-c2ccccc2)c(Cl)nc2ccc(C(O)(c3cnnn3C)c3cnc(C)n3C)cc12 (single isomer, unassigned) [Example 40b, (2-Chloro-4-methoxy-3-phenylquinolin-6-yl)(1,2-dimethyl-1H-imidazol-5-yl)(1-methyl-1H-1,2,3-triazol-5-yl)methanol] | 150 | 680 | – | – |
| Cn1cncc1C(O)(c1ccc(Cl)cc1)c1ccc2nc(Cl)c(-c3ccccc3)c(Cl)c2c1 (stereo not shown) [Example 65, (4-Chlorophenyl)(2,4-dichloro-3-phenylquinolin-6-yl)(1-methyl-M-imidazol-5-yl)methanol] | – | – | – | IC50 ([2]; 72 h): 1800 nM |
| COc1c(-c2ccccc2)c(Cl)nc2ccc(C(O)(c3cnnn3C)c3cnc(C)n3C)cc12 (single isomer, unassigned) [Example 40c, (2-Chloro-4-methoxy-3-phenylquinolin-6-yl)(1,2-dimethyl-1H-imidazol-5-yl)(1-methyl-1H-1,2,3-triazol-5-yl)methanol] | 120 | 190 | – | – |
| Cc1nc(C)c(C(O)(c2ccc3nc(Cl)c(-c4ccccc4)c(Cl)c3c2)c2cncn2C)s1 (stereo not shown) [Example 68, (2,4-Dichloro-3-phenylquinolin-6-yl)(2,4-dimethylthiazol-5-yl)(1-methyl-1H-imidazol-5-yl)methanol] | – | – | – | IC50 ([2]; 72 h): 20 nM |
| Cc1cc(C(O)(c2ccc(C(F)(F)F)nc2)c2cncn2C)cc2c(C#N)c(-c3ccccc3)c(C#N)nc12 (single isomer, unassigned) [Example 25c, 6-(Hydroxy(1-methyl-1H-imidazol-5-yl)(6-(trifluoromethyl)pyridin-3-yl)methyl)-8-methyl-3-phenylquinoline-2,4-dicarbonitrile] | – | – | – | IC50 ([2]; Homo sapiens, CD4+ T, 72 h): 160 nM |
| COc1nc2ccc(C(O)(c3cncn3C)C3CCN(C(C)=O)CC3)cc2c(C#N)c1-c1cccc(C(F)(F)F)c1 (single isomer, unassigned) [Example 2c, 6-((1-Acetylpiperidin-4-yl)(hydroxy)(1-methyl-1H-imidazol-5-yl)methyl)-2-methoxy-3-(3-(trifluoromethyl)phenyl)quinoline-4-carbonitrile] | – | 170 | – | – |

More lines, main results first:

| Kd [1] [nM] | IC50 (human RORγt LBD) [nM] | RORγt reporter Assay, % inhibition @ 6 μM (human RORγt LBD) [%] | SMILES | also measured |
| --- | --- | --- | --- | --- |
| 9 | 140 | 93 | CC(=O)N1CCC(C(O)(c2cccnc2)c2ccc3nc(C(F)(F)F)c(-c4ccccc4)c(C#N)c3c2)CC1 (single isomer, unassigned) [Example 30c, 6-((1-Acetylpiperidin-4-yl)(hydroxy)(pyridin-3-yl)methyl)-3-phenyl-2-(trifluoromethyl)quinoline-4-carbonitrile] | IC50 [2]: 2200 nM |
| 5 | 42 | 103 | Cn1cncc1C(O)(c1ccc(Cl)cc1)c1ccc2nc(C(F)(F)F)c(-c3ccccc3)c(C#N)c2c1 (single isomer, unassigned) [Example 31b, 6-((4-Chlorophenyl)(hydroxy)(1-methyl-1H-imidazol-5-yl)methyl)-3-phenyl-2-(trifluoromethyl)quinoline-4-carbonitrile] | IC50 ([2]; Homo sapiens, CD4+ T, 72 h): 20 nM |
| 23 | 110 | – | CC(=O)N1CCC(C(O)(c2cccnc2)c2ccc3nc(C(F)(F)F)c(-c4ccccc4)c(C#N)c3c2)CC1 (single isomer, unassigned) [Example 30a, 6-((1-Acetylpiperidin-4-yl)(hydroxy)(pyridin-3-yl)methyl)-3-phenyl-2-(trifluoromethyl)quinoline-4-carbonitrile.TFA] | inhibition at 6 µM (human RORγt LBD): 91% |
| – | 150 | – | Cn1cncc1C(O)(c1ccc(Cl)cc1)c1ccc2nc(C(F)(F)F)c(-c3ccccc3)c(C#N)c2c1 (single isomer, unassigned) [Example 31a, 6-((4-Chlorophenyl)(hydroxy)(1-methyl-1H-imidazol-5-yl)methyl)-3-phenyl-2-(trifluoromethyl)quinoline-4-carbonitrile.TFA] | inhibition at 6 µM (human RORγt LBD): 102% |
| 300 | 49 | 95 | CC(=O)N1CCC(C(O)(c2cccnc2)c2ccc3nc(C(F)(F)F)c(-c4ccccc4)c(C#N)c3c2)CC1 (single isomer, unassigned) [Example 30b, 6-((1-Acetylpiperidin-4-yl)(hydroxy)(pyridin-3-yl)methyl)-3-phenyl-2-(trifluoromethyl)quinoline-4-carbonitrile] | IC50 [2]: 57 nM |
| 3300 | 1600 | 85 | Cn1cncc1C(O)(c1ccc(Cl)cc1)c1ccc2nc(C(F)(F)F)c(-c3ccccc3)c(C#N)c2c1 (single isomer, unassigned) [Example 31c, 6-((4-Chlorophenyl)(hydroxy)(1-methyl-1H-imidazol-5-yl)methyl)-3-phenyl-2-(trifluoromethyl)quinoline-4-carbonitrile] | – |
